In patent publication US6458593B1, “Immortalized cell lines and methods of making the same” (Vitro Diagnostics, Inc., priority 1999, dated 2002):
No end group written: not given here.

Experiments:
Format in all cases: cell-based
[1] = system: primary cultured human pituitary cells; test: Pituitary hormone secretion from primary cultures of panned human pituitary cells; parameters: key to Effect on LH secretion / Effect on PRL secretion / Effect on FSH secretion / Effect on GH secretion: NE: no effect detected; +: stimulatory; −: inhibitory; settings: for Optimum condition (concentration) for GH secretion / Optimum condition (concentration) for LH secretion / Optimum condition (concentration) for PRL secretion / Optimum condition (concentration) for FSH secretion: Gc medium
Method: Fetal human pituitary glands were obtained from Anatomical Gift Foundation (White Oak, Ga.) or Advanced Bioscience Resources, (Alameda, Calif.). Pituitary glands were stored in approximately 20 mls of RPMI culture media at 4° C. and processed within 24 hours of dissection. The gestational age ranged from 19 to 24 weeks. The following dispersion procedure was performed using sterile materials and technique throughout. Tissue was rinsed in 30 mls modified Kreb's Ringer solution, supplemented with 5 g/L bovine serum albumin (BSA) and nonessential amino acids. The tissue was then transferred to a glass microscope slide, and finely minced using scapels. Minced tissue was suspended in 2 to 2.25 mls modified Kreb's Ringer containing 1 mg/ml collagenase (Sigma Chemical Co., St. Louis, Mo.). The mixture was incubated at 37° C. with rotation at 250 rpm for 60 minutes. The dispersed cells were washed in 20 mls DMEM/F12 medium and centrifuged (5 minutes at 428×g). The supernatant was aspirated leaving 2-4 mls, and two additional washes were performed using 10 mls DMEM/F12. Cells were counted using a hemacytometer (Fresney, I R, 1987). The total number of cells ranged from 100,000 to 2 million per gland, with greater cell numbers in older pituitary glands. The mixture was centrifuged (5 minutes at 428×g). The pellet was then resuspended in culture media, as described below, at approximately 10^5 cells/ml and plated into multi-well, styrene tissue culture plates, incubated at 37° C. in humidified air supplemented with 5% CO2.
Primary culture conditions necessary for the proliferation of endocrine cells of the pituitary gland were investigated. The present invention requires cellular proliferation of target cells for integration of foreign DNA into the host cell genome and induction of immortalization. The pituitary gland is composed of numerous cell types including fibroblasts, follicular stellate cells, endocrine epithelial cells (gonadotropes, thyrotropes, somatotropes, lactotropes, melanotropes, corticotropes) and endothelial cells from blood vessels. Since the hormone-producing endocrine cells are one target of the present invention, we investigated methods to enrich the population of endocrine cells. […] Primary cultures were panned by initially plating the dispersed pituicytes in a single 35 mm tissue culture dish at about 5×10^4 cells/ml. After 16-24 hours, less adherent cells were removed from these cultures by repetitive pipetting of media (approximately 10 times). These cells were pelleted by centrifugation (5 minutes at 428×g) and replated at 10^5 cells/ml.
To monitor the viability and/or secretory capability of the hormone-producing endocrine cells, we measured secretion of pituitary hormones from cultures of panned pituitary cells. The level of FSH, LH, prolactin and TSH in culture media was determined using an automated chemiluminescent-based immunoanalyzer, ACS: 180™ (Chiron Diagnostics, Inc., Norwood, Mass.). Growth hormone was determined using an immunoradiometric assay (Nichols Institute, San Juan Capistrano, Calif.). Culture media was harvested on Mondays and Fridays from growing cultures for several weeks. These cultures were maintained in 48-well plates (Falcon/Becton Dickinson, Franklin Lakes, N.J.), with each well containing 1 ml of media. The majority of the media were carefully removed to avoid uptake of cells and transferred to 12×75 mm tubes for analysis. Cells were fed with an equal volume of fresh medium at the same time points. Background levels of GH in various media were insignificant (<0.1 ng/ml). Each condition was tested in duplicate and graphed values are the mean hormone concentration +/− standard deviation.
Similar types of experiments were done to optimize cell culture conditions and components for secretion of GH, FSH, LH, and prolactin from primary cultured human pituitary cells. […]

[2] = system: immortalized bovine pituitary cells; test: Bovine GH secretion into conditioned media (immunoblot); settings: 10 μM, 3 hours in media without FBS, passage 2-10
Method: Additional experiments were performed using highly sensitive immunological methods to detect bovine growth hormone within live, individual cells in the immortalized cultures. Bovine GH-specific monoclonal antibodies were obtained from Biogenesis, Inc. (Catalog No. 4750-0939) and OEM Concepts (Toms River, N.J.). […] A cellular blotting method was used to monitor bovine GH secretion from pituitary cells grown in culture, as described by Gibson-D'Ambrosio, et al. (1995). By localizing bovine GH within cultures, it was possible to obtain enriched cultures of bovine somatotropes prior to transfection with pSV3neo. […] These cell lines are indicated in Table 2 with the designation bGH, e.g., bGH C5.
To test for secretion of bovine GH from immortalized bovine cell line, cultures of passage 2-10 were grown to confluence in FBS-containing media, washed three times with PBS and incubated for 3 hours in media without FBS. Duplicate wells contained 10 μM bovine growth hormone releasing factor (GHRF).

[3] = system: primary pituitary cultures; test: G418 selection: killing of non-transfected human pituitary cells
Method: Dispersed and panned cells human pituitary cells were plated at 200,000 to 300,000 cells per ml in 6-well plates (Falcon/Becton Dickinson, Franklin Lakes, N.J.) and grown until 30-50% confluent. Transfection was performed using cationic lipids to deliver plasmids containing either the SV40 large T antigen or the v-myc oncogene into primary-cultured pituitary cells. Plasmids without oncogenes were used as controls for transfection. Wells transfected with control plasmid slightly outlived primary cell cultures due to the presence of the gene coding for G418 resistance but died after 2 to 3 weeks or a single passage of the cells. Using Lipfectin®, we transfected panned pituitary cells with either pSV3neo (Southern, P J and Berg, P J, 1982) or pLXSN-v-myc, constructed as described below. The concentration of DNA was kept constant (typically […]) in each well while the amount of cationic lipid increased from 0-20 μl. […] The formation of colonies in the presence of G418 was monitored for a varying number of weeks.
Primary cultured human pituitary cells transfected with pSV3neo were incubated for an additional 48 to 60 hours in Gc medium with 10^−10 M estradiol and nonessential amino acids before G418 selection. […] Medium was replaced every 3 to 4 days and the formation of individual colonies was monitored visually. […]

[4] = primary human pituitary cultures
[5] = initial treatment, in the presence of cortisone and estrogen

With N[C@@H](Cc1cc(I)c(Oc2ccc(O)c(I)c2)c(I)c1)C(=O)O [T3, 3,5,3′ triiodothyronine] the “Effect on TSH release” value ([1]; 10^−10 M) was “strongly inhibitory”, the “Effect on secretion of GH” value ([1]; 10^−10 M) was “beneficial” and the “Effect on secretion of LH” value ([1]; 10^−10 M) was “beneficial”. The “Effect on secretion of prolactin” value ([1]; 10^−10 M) was “beneficial”, the “Effect on FSH secretion” value [1, 4] was “NE” and the “Optimum condition (concentration) for GH secretion” value [1, 4] was 100 pM. The “Optimum condition (concentration) for LH secretion” value [1, 4] was 1e-10 M and the “Optimum condition (concentration) for PRL secretion” value [1, 4] was 100 pM.
In the case of “GHRF: bovine growth hormone releasing factor (YADAIFTNSYRKVLGQLSARKLLQDIMNRQQGERNQEQGAKVRL; ends and bridges not checked; UniProt P63292 31-74, looked up)”, the “Effect on amount of bovine GH secreted” value [2] is reported as “appeared to be potentiated”.
For “FGF-basic: basic fibroblast growth factor, growth factor addition to the medium”, the “Effect on GH release” value ([1]; 0.1 ng/ml, preliminary evidence) was “potentiates”, the “Effect on FSH secretion” value [1, 4] was “NE” and the “Effect on LH secretion” value [1, 4] was “NE”. For the same compound, the “Effect on PRL secretion” value [1, 4] was “NE” and the “Optimum condition (concentration) for GH secretion” value [1, 4] was 0.1 ng/mL.
With CN[C@@H]1[C@@H](O)[C@@H](O[C@@H]2[C@@H](O)[C@H](O[C@H]3O[C@H]([C@@H](C)O)[C@@H](O)[C@H](O)[C@H]3N)[C@@H](N)C[C@H]2N)OC[C@]1(C)O [G418] the Non-transfected cells killed ([3]; 250 μg/ml, final dose) was 100% and the “Concentration sufficient to kill all primary pituitary cultures tested” value ([3]; human primary pituitary cultures) was 150 µg/mL.
“GnRH: gonadotropin releasing hormone, a hypothalamic releasing hormone (QHWSYGLRPG; ends and bridges not checked; UniProt P01148 24-33, looked up)” was tested, and the “Effect on FSH secretion” value [1, 5] was “significantly potentiated”, the “Effect on LH secretion” value [1, 5] was “significantly potentiated” and the “Effect on GH secretion” value [1, 4] was “NE”. For the same compound, the “Effect on PRL secretion” value [1, 4] was “NE”, the “Optimum condition (concentration) for FSH secretion” value [1, 4] was 10^−10 M and the “Optimum condition (concentration) for LH secretion” value [1, 4] was 10^−7 to 10^−10M.
With C[C@]12CCC(=O)C=C1CC[C@@H]1[C@@H]2[C@@H](O)C[C@@]2(C)[C@H]1CC[C@]2(O)C(=O)CO [Hydrocortisone] the “Effect on LH secretion” value [1, 4] was “NE”, the “Effect on PRL secretion” value [1, 4] was “NE” and the “Optimum condition (concentration) for FSH secretion” value [1, 4] was 5e-08 M. For the same compound, the “Optimum condition (concentration) for GH secretion” value [1, 4] was 50000 pM.
In the case of C[C@]12CC[C@@H]3c4ccc(O)cc4CC[C@H]3[C@@H]1CC[C@@H]2O [17β-Estradiol], the “Effect on GH secretion” value ([1]; 10^−10 M in medium, previous experiments) is reported as “stimulatory effect”, the “Effect on FSH secretion” value [1, 4] is reported as “NE” and the “Effect on LH secretion” value [1, 4] is reported as “NE”. The “Optimum condition (concentration) for GH secretion” value [1, 4] was 100 pM and the “Optimum condition (concentration) for PRL secretion” value [1, 4] was 100 pM.
